Test results from ChEMBL document CHEMBL2203133 (J Med Chem, 2012).

Legend:
in vitro = conditions: mouse, liver microsomes
[1] = molecular target: T1, Serine/threonine-protein kinase Chk1 (Homo sapiens, UniProt O14757)
T1 sequence (O14757 whole entry): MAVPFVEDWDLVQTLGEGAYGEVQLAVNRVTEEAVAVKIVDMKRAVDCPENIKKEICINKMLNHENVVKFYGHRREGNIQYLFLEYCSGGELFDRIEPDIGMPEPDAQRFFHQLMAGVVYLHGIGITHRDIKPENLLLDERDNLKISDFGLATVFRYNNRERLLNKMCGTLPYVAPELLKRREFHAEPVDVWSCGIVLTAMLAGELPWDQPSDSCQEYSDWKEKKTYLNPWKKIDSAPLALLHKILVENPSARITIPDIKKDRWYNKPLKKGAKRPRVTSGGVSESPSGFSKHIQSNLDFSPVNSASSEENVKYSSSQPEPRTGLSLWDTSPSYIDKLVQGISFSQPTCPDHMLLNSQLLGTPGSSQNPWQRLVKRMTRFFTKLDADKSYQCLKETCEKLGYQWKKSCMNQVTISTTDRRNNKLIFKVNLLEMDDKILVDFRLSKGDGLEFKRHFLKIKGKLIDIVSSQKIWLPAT

Plasma [2] = assay: Dose normalized plasma concentration in BALB/c mouse at 1 mg/kg, iv at 6 hrs administered as bolus dose; format: ADME, organism-based; parameters: dose 1 mg/kg, route intravenous; conditions: in vivo
Plasma [3] = assay: Dose normalized plasma concentration in BALB/c mouse at 1 mg/kg, iv at 1 hr administered as bolus dose; format: ADME, organism-based; parameters: dose 1 mg/kg, route intravenous; conditions: in vivo
[4] = Plasma concentration in BALB/c mouse at 10 mg/kg, po at 6 hrs; format: ADME, organism-based; parameters: dose 10 mg/kg, route oral
[5] = Plasma concentration in BALB/c mouse at 10 mg/kg, po at 1 hr; format: ADME, organism-based; parameters: dose 10 mg/kg, route oral

- metabolised at 0.5 h (in vitro): 17%
- IC50 [1]: 4.4 nM
- Cp/dose (Plasma [2]): < 20 nM
- Cp/dose (Plasma [3]): 320 nM
- concentration at 6 h [4]: 12 nM
- concentration at 1 h [5]: 193 nM
Structure (SMILES): CNc1cc(Nc2cnc(C#N)c(O[C@@H]3CCN(C)C3)n2)ncc1-c1cnn(C)c1
